From patent US20240287122A1, “NOVEL GALACTOSIDE INHIBITOR OF GALECTINS” (GALECTO BIOTECH AB, priority 2020, published 2024)

Experiments:
Galectin-1 = Galectin-1 (Homo sapiens, UniProt P09382); assay: Fluorescence anisotropy assay, affinity for galectin-1; assay type: binding; settings: compound as inhibitor of the interaction between galectin and a fluorescein tagged saccharide probe
Experimental: (§1) The affinity of Example 1-43 for galectins were determined by a fluorescence anisotropy assay where the compound was used as an inhibitor of the interaction between galectin and a fluorescein tagged saccharide probe as described Sörme, P., Kahl-Knutsson, B., Huflejt, M., Nilsson, U. J., and Leffler H. (2004) Fluorescence polarization as an analytical tool to evaluate galectin-ligand interactions. Anal. Biochem. 334: 36-47, (Sörme et al., 2004) and Monovalent interactions of Galectin-1 By Salomonsson, Emma; Larumbe, Amaia; Tejler, Johan; Tullberg, Erik; Rydberg, Hanna; Sundin, Anders; Khabut, Areej; Frejd, Torbjomn; Lobsanov, Yuri D.; Rini, James M.; et al, From Biochemistry (2010), 49(44), 9518-9532, (Salomonsson et al., 2010).

Galectin-3 = Galectin-3 (Homo sapiens, UniProt P17931); assay: Fluorescence anisotropy assay, affinity for galectin-3; assay type: binding; settings: compound as inhibitor of the interaction between galectin and a fluorescein tagged saccharide probe
Sequence of Galectin-3 (P17931 whole entry): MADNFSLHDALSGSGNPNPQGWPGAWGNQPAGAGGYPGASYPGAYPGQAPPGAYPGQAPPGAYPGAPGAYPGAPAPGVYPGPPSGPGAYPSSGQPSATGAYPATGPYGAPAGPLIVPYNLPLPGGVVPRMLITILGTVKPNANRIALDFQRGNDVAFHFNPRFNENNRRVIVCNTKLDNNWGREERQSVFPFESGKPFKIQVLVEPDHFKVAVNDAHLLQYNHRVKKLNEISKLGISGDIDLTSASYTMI
Experimental: as §1

Sequence of Galectin-1 (P09382 whole entry): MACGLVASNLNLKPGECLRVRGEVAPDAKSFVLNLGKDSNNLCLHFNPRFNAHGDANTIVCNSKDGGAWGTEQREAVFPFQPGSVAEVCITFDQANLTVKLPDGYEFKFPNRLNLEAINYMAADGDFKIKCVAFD

| SMILES | Kd (Galectin-1) [nM] | Kd (Galectin-3) [nM] |
| --- | --- | --- |
| CNC(=O)c1ccc(Br)cc1S[C@H]1OC(CO)[C@H](O)C(n2cc(-n3ccc(Cl)n3)nn2)C1OC (stereo partly drawn) [Example 1, 5-Bromo-2-(N-methyl-carbonyl)phenyl 3-[4-(3-chloro-1H-1,2-pyrazol-1-yl)-1H-1,2,3-triazol-1-yl]-3-deoxy-2-O-methyl-1-thio-α-D-galactopyranoside] | 57 | 160 |
| COC1C(n2cc(-n3ccc(Cl)n3)nn2)[C@@H](O)C(CO)O[C@@H]1Sc1cc(Br)ccc1C#N (stereo partly drawn) [Example 2, 5-Bromo-2-cyanophenyl 3-[4-(3-chloro-1H-1,2-pyrazol-1-yl)-1H-1,2,3-triazol-1-yl]-3-deoxy-2-O-methyl-1-thio-α-D-galactopyranoside] | 85 | 130 |
| COC1C(n2cc(-n3ccc(Cl)n3)nn2)[C@@H](O)C(CO)O[C@@H]1Sc1cc(Br)cnc1C#N (stereo partly drawn) [Example 3, 5-Bromo-2-cyanopyridin-3-yl 3-[4-(3-chloro-1H-1,2-pyrazol-1-yl)-1H-1,2,3-triazol-1-yl]-3-deoxy-2-O-methyl-1-thio-α-D-galactopyranoside] | 130 | 120 |
| OCC1O[C@H](Sc2cncc(Cl)c2)C(O)C(n2cc(-n3ccc(F)n3)nn2)[C@H]1O (stereo partly drawn) [Example 4, 5-Chloropyridin-3-yl 3-deoxy-3-[4-(3-fluoro-1H-1,2-pyrazol-1-yl)-1H-1,2,3-triazol-1-yl]-1-thio-α-D-galactopyranoside] | 1700 | 360 |
| OCC1O[C@H](Sc2cncc(Cl)c2)C(O)C(n2cc(-n3ccc(Cl)n3)nn2)[C@H]1O (stereo partly drawn) [Example 5, 5-Chloropyridin-3-yl 3-[4-(3-chloro-1H-1,2-pyrazol-1-yl)-1H-1,2,3-triazol-1-yl]-3-deoxy-1-thio-α-D-galactopyranoside] | 500 | 310 |
| COC1C(n2cc(-n3ccc(Cl)n3)nn2)[C@@H](O)C(CO)O[C@@H]1Sc1cc(Cl)cnc1C(F)(F)F (stereo partly drawn) [Example 6, 5-Chloro-2-(trifluoromethyl)pyridin-3-yl 3-[4-(3-chloro-1H-1,2-pyrazol-1-yl)-1H-1,2,3-triazol-1-yl]-3-deoxy-2-O-methyl-1-thio-α-D-galactopyranoside] | 200 | 270 |
| COC1C(n2cc(-n3ccc(Cl)n3)nn2)[C@@H](O)C(CO)O[C@@H]1Sc1cc(Br)cnc1C(F)(F)F (stereo partly drawn) [Example 7, 5-Bromo-2-(trifluoromethyl)pyridin-3-yl 3-[4-(3-chloro-1H-1,2-pyrazol-1-yl)-1H-1,2,3-triazol-1-yl]-3-deoxy-2-O-methyl-1-thio-α-D-galactopyranoside] | 150 | 210 |
| COC1C(n2cc(-n3ccc(Cl)n3)nn2)[C@@H](O)C(CO)O[C@@H]1Sc1cnc(C(F)(F)F)c(Cl)c1 (stereo partly drawn) [Example 8, 3-Chloro-2-(trifluoromethyl)pyridin-5-yl 3-[4-(3-chloro-1H-1,2-pyrazol-1-yl)-1H-1,2,3-triazol-1-yl]-3-deoxy-2-O-methyl-1-thio-α-D-galactopyranoside] | 360 | 540 |
| COC1C(n2cc(-n3ccc(Cl)n3)nn2)[C@@H](O)C(CO)O[C@@H]1Sc1cnc(C(F)(F)F)c(Br)c1 (stereo partly drawn) [Example 9, 3-Bromo-2-(trifluoromethyl)pyridin-5-yl 3-[4-(3-chloro-1H-1,2-pyrazol-1-yl)-1H-1,2,3-triazol-1-yl]-3-deoxy-2-O-methyl-1-thio-α-D-galactopyranoside] | 210 | 390 |
| COC1C(n2cc(-n3ccc(Cl)n3)nn2)[C@@H](O)C(CO)O[C@@H]1Sc1cc(Br)cnc1C(=O)N(C)C (stereo partly drawn) [Example 10, 5-Bromo-2-(N,N-dimethylcarbamoyl)pyridin-3-yl 3-[4-(3-chloro-1H-1,2-pyrazol-1-yl)-1H-1,2,3-triazol-1-yl]-3-deoxy-2-O-methyl-1-thio-α-D-galactopyranoside] | 54 | 73 |
| COC1C(n2cc(-n3cc(Cl)cn3)nn2)[C@@H](O)C(CO)O[C@@H]1Sc1cc(Br)cnc1C#N (stereo partly drawn) [Example 11, 5-Bromo-2-cyanopyridin-3-yl 3-[4-(4-chloro-1H-1,2-pyrazol-1-yl)-1H-1,2,3-triazol-1-yl]-3-deoxy-2-O-methyl-1-thio-α-D-galactopyranoside] | 520 | 420 |
| COC1C(n2cc(-n3ccc(F)n3)nn2)[C@@H](O)C(CO)O[C@@H]1Sc1cc(Br)cnc1C#N (stereo partly drawn) [Example 12, 5-Bromo-2-cyanopyridin-3-yl 3-deoxy-3-[4-(3-fluoro-1H-1,2-pyrazol-1-yl)-1H-1,2,3-triazol-1-yl]-2-O-methyl-1-thio-α-D-galactopyranoside] | 180 | 160 |
| COC1C(n2cc(-n3cc(F)cn3)nn2)[C@@H](O)C(CO)O[C@@H]1Sc1cc(Br)cnc1C#N (stereo partly drawn) [Example 13, 5-Bromo-2-cyanopyridin-3-yl 3-deoxy-3-[4-(4-fluoro-1H-1,2-pyrazol-1-yl)-1H-1,2,3-triazol-1-yl]-2-O-methyl-1-thio-α-D-galactopyranoside] | 180 | 1700 |
| COC1C(n2cc(-n3ccc(C)n3)nn2)[C@@H](O)C(CO)O[C@@H]1Sc1cc(Br)cnc1C#N (stereo partly drawn) [Example 14, 5-Bromo-2-cyanopyridin-3-yl 3-deoxy-3-[4-(3-methyl-1H-1,2-pyrazol-1-yl)-1H-1,2,3-triazol-1-yl]-2-O-methyl-1-thio-α-D-galactopyranoside] | 180 | 1400 |
| COC1C(n2cc(-n3nccc3C)nn2)[C@@H](O)C(CO)O[C@@H]1Sc1cc(Br)cnc1C#N (stereo partly drawn) [Example 15, 5-Bromo-2-cyanopyridin-3-yl 3-deoxy-3-[4-(5-methyl-1H-1,2-pyrazol-1-yl)-1H-1,2,3-triazol-1-yl]-2-O-methyl-1-thio-α-D-galactopyranoside] | 890 | 4300 |
| COC1C(n2cc(-n3nc(Cl)cc3C)nn2)[C@@H](O)C(CO)O[C@@H]1Sc1cc(Br)cnc1C#N (stereo partly drawn) [Example 16, 5-Bromo-2-cyanopyridin-3-yl 3-[4-(3-chloro-5-methyl-1H-1,2-pyrazol-1-yl)-1H-1,2,3-triazol-1-yl]-3-deoxy-2-O-methyl-1-thio-α-D-galactopyranoside] | 350 | 400 |
| COC1C(n2cc(-n3nc(C(F)(F)F)cc3Cl)nn2)[C@@H](O)C(CO)O[C@@H]1Sc1cc(Br)cnc1C#N (stereo partly drawn) [Example 17, 5-Bromo-2-cyanopyridin-3-yl 3-{4-[5-chloro-3-(trifluoromethyl)-1H-1,2-pyrazol-1-yl]-1H-1,2,3-triazol-1-yl}-3-deoxy-2-O-methyl-1-thio-α-D-galactopyranoside] | 2000 | 560 |
| COC1C(n2cc(-n3cc(C)c(Cl)n3)nn2)[C@@H](O)C(CO)O[C@@H]1Sc1cc(Br)cnc1C#N (stereo partly drawn) [Example 18, 5-Bromo-2-cyanopyridin-3-yl 3-[4-(3-chloro-4-methyl-1H-1,2-pyrazol-1-yl)-1H-1,2,3-triazol-1-yl]-3-deoxy-2-O-methyl-1-thio-α-D-galactopyranoside] | 350 | 41 |
| CCN(C(=O)c1ncc(Br)cc1S[C@H]1OC(CO)[C@H](O)C(n2cc(-n3ccc(Cl)n3)nn2)C1OC)C(C)C (stereo partly drawn) [Example 19, 5-Bromo-2-(N,N-ethylisopropylcarbamoyl)pyridin-3-yl 3-[4-(3-chloro-1H-1,2-pyrazol-1-yl)-1H-1,2,3-triazol-1-yl]-3-deoxy-2-O-methyl-1-thio-α-D-galactopyranoside] | 110 | 92 |
| COC1C(n2cc(-n3ccc(Cl)n3)nn2)[C@@H](O)C(CO)O[C@@H]1Sc1cc(Br)cnc1C(=O)N(CC(C)C)CC(C)C (stereo partly drawn) [Example 20, 5-Bromo-2-(N,N-diisobutylcarbamoyl)pyridin-3-yl 3-[4-(3-chloro-1H-1,2-pyrazol-1-yl)-1H-1,2,3-triazol-1-yl]-3-deoxy-2-O-methyl-1-thio-α-D-galactopyranoside] | 360 | 360 |
| CCN(CC1CC1)C(=O)c1ncc(Br)cc1S[C@H]1OC(CO)[C@H](O)C(n2cc(-n3ccc(Cl)n3)nn2)C1OC (stereo partly drawn) [Example 21, 5-Bromo-2-[N,N-(cyclopropylmethyl)ethylcarbamoyl]pyridin-3-yl 3-[4-(3-chloro-1H-1,2-pyrazol-1-yl)-1H-1,2,3-triazol-1-yl]-3-deoxy-2-O-methyl-1-thio-α-D-galactopyranoside] | 100 | 100 |
| COC1C(n2cc(-n3ccc(Cl)n3)nn2)[C@@H](O)C(CO)O[C@@H]1Sc1cc(Br)cnc1C(=O)N(C)CC(C)(C)F (stereo partly drawn) [Example 22, 5-Bromo-2-[N,N-(2-fluoro-2-methylpropyl)methylcarbamoyl]pyridin-3-yl 3-[4-(3-chloro-1H-1,2-pyrazol-1-yl)-1H-1,2,3-triazol-1-yl]-3-deoxy-2-O-methyl-1-thio-α-D-galactopyranoside] | 98 | 76 |
| CCN(C(=O)c1ncc(Br)cc1S[C@H]1OC(CO)[C@H](O)C(n2cc(-n3ccc(Cl)n3)nn2)C1OC)C(C)(C)C (stereo partly drawn) [Example 23, 5-Bromo-2-[N,N-(tert-butyl)ethylcarbamoyl]pyridin-3-yl 3-[4-(3-chloro-1H-1,2-pyrazol-1-yl)-1H-1,2,3-triazol-1-yl]-3-deoxy-2-O-methyl-1-thio-α-D-galactopyranoside] | 87 | 72 |
| COC1C(n2cc(-n3ccc(Cl)n3)nn2)[C@@H](O)C(CO)O[C@@H]1Sc1cc(Br)cnc1C(=O)N(CC1CC1)CC1CC1 (stereo partly drawn) [Example 24, 5-Bromo-2-[N,N-bis(cyclopropylmethyl)carbamoyl]pyridin-3-yl 3-[4-(3-chloro-1H-1,2-pyrazol-1-yl)-1H-1,2,3-triazol-1-yl]-3-deoxy-2-O-methyl-1-thio-α-D-galactopyranoside] | 120 | 83 |
